Experimental data published in article PMC7327383, “The affinity and selectivity of α‐adrenoceptor antagonists, antidepressants, and antipsychotics for the human α1A, α1B, and α1D‐adrenoceptors” (Pharmacology Research & Perspectives, 2020).
Like-named read-outs stand apart in the source and are kept apart here.

Columns and labels:
human α1A-adrenoceptor = biological target: T1, human α1A-adrenoceptor (Homo sapiens, UniProt P35348); assay: [3H]prazosin whole-cell competition binding, CHO-α1A cells
T1 construct: CHO cells stably expressing either the full‐length human α1A, α1B, or α1D‐adrenoceptor
T1 sequence (P35348 1-466): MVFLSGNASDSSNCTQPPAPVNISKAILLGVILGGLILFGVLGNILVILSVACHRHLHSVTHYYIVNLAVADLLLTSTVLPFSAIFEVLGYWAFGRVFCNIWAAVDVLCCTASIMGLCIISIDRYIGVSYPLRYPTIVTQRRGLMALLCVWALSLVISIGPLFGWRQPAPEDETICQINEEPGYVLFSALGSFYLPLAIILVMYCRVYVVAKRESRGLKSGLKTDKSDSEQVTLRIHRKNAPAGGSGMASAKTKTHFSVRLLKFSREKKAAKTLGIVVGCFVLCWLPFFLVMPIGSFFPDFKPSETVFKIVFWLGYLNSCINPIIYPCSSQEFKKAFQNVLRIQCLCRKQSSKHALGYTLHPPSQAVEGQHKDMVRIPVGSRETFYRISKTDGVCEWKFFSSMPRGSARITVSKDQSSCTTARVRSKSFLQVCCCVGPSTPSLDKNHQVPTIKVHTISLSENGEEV

human α1B-adrenoceptor = biological target: T2, human α1B-adrenoceptor (Homo sapiens, UniProt P35368); assay: [3H]prazosin whole-cell competition binding, CHO-α1B cells
T2 construct: CHO cells stably expressing either the full‐length human α1A, α1B, or α1D‐adrenoceptor
T2 sequence (P35368 1-520): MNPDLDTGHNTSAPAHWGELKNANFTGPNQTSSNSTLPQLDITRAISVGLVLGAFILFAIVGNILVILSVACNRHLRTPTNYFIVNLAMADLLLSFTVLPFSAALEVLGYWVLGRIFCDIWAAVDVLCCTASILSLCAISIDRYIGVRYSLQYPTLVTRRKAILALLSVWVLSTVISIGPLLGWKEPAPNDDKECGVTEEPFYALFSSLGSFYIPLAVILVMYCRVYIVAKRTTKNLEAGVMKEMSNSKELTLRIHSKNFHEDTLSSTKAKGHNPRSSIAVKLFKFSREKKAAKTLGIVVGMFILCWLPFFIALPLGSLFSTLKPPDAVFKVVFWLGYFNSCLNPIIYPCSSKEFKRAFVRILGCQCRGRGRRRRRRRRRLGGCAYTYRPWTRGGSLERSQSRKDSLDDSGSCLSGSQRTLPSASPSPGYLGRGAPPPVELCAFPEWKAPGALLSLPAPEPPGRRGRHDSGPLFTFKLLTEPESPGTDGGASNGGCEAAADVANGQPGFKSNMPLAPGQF

[1] = biological target: T3, full-length human α1D-adrenoceptor (Homo sapiens, UniProt P25100); assay: [3H]prazosin whole-cell competition binding, CHO-α1D cells
T3 sequence (P25100 1-572): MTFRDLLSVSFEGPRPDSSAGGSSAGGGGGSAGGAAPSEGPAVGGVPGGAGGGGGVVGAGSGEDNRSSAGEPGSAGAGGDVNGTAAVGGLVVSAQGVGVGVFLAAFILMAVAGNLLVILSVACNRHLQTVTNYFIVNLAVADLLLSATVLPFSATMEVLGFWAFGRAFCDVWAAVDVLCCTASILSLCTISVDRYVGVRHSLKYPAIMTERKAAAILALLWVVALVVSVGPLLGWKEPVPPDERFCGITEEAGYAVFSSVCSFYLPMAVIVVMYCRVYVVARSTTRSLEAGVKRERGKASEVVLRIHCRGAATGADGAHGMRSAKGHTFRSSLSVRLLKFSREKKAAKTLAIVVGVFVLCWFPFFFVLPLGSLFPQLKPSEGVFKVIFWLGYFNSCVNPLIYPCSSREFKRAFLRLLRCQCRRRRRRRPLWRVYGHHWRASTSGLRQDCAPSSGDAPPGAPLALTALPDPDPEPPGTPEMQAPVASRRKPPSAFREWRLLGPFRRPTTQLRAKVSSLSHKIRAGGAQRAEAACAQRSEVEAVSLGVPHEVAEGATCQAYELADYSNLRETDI

[2] = ratio of KD values, printed under α1A = higher α1A affinity, 1.0 under vs = none
[3] = ratio, 1 = no selectivity for a subtype over another
[4] = single-component inhibition curve, given as log KD (negative), mean ± SE mean, read-out: Log KD α1A (converted)
[5] = single-component inhibition curve, given as log KD (negative), mean ± SE mean, read-out: Log KD α1B (converted)
[6] = Log KD α1D site 1, high-affinity component of two-component curve, control, used for selectivity
[7] = low-affinity component of two-component curve, control
[8] = percentage of inhibition through first component, control
[9] = ratio of KD values, higher α1D affinity (site 1 KD)
[10] = two-component inhibition curve, proportion of site 1
[11] = single-component inhibition curve, given as log KD (negative), mean ± SE mean
[12] = high-affinity component of two-component curve, control, used for selectivity
[13] = ratio of KD values, higher α1A affinity, 1.0 under vs = none
[14] = ratio of KD values, higher α1B affinity, 1.0 under vs = none
[15] = Log KD α1D, single-component inhibition curve, given as log KD (negative), mean ± SE mean
[16] = Log KD α1A, single-component inhibition curve, given as log KD (negative), mean ± SE mean
[17] = log KD from 3H-prazosin whole cell binding, CHO cells, mean ± s.e.mean
[18] = selectivity ratio, 1 = no selectivity for a given receptor subtype over another

SMILES	Selectivity ratio α1A vs α1B (human α1A-adrenoceptor; [2]) [fold]	Kd (human α1A-adrenoceptor; [4]) [µM]	selectivity α1B vs α1D (human α1B-adrenoceptor; [3])	Kd (human α1B-adrenoceptor; [5]) [µM]	% site 1 α1D [1, 8]	Selectivity ratio α1B vs α1D [1, 9] [fold]	Selectivity ratio α1A vs α1D (human α1A-adrenoceptor; [13]) [fold]	Kd [1, 15] [µM]	other results
O=C1NCN(c2ccccc2)C12CCN(CC1COc3ccccc3O1)CC2 (centres unmarked) [Spiroxatrine]	2.8	0.138	28	0.389	61.9 ± 4.0% site 1	28	–	–	selectivity α1A vs 1D (human α1A-adrenoceptor; [3]): 10; Kd [1, 6]: 0.0138 µM; Log KD α1D site 2 [1, 7]: −5.84 ± 0.31; Selectivity ratio α1A vs α1D [1, 9]: 10 fold; % site 1 α1D [1, 10]: -7.86 ± 0.13 -5.84 ± 0.31 61.9 ± 4.0% site 1
CN1CC[C@]2(CCN3CCc4c(oc5ccccc45)[C@@H]3C2)N(C)C1=O.Cl [MK‐912]	20	–	–	–	61.2 ± 5.5% site 1	69	–	–	Log KD α1A (human α1A-adrenoceptor; [11]): −6.76 ± 0.03; Log KD α1B (human α1B-adrenoceptor; [11]): −5.46 ± 0.05; Log KD α1D site 1 [1, 12]: −7.30 ± 0.16; Log KD α1D site 2 [1, 7]: −5.50 ± 0.25; Selectivity ratio α1A vs α1D [1, 9]: 3.5 fold
O=C1NCCN1CCN1CCC(c2cn(-c3ccc(F)cc3)c3ccc(Cl)cc23)CC1 [Sertindole]	9.8	0.000537	–	0.00525	–	–	219	0.117	Selectivity ratio α1B vs α1D (human α1B-adrenoceptor; [14]): 22 fold
Cc1ccc(OCC(O)C(C)NC(C)C)c2c1CCC2 (centres unmarked) [ICI118551]	11	5.89	5.8	–	–	5.8	1.9	11	Kd (human α1B-adrenoceptor; app: top concentration inhibited most but not all specific binding, curve extrapolated, read-out: Log KD α1B (apparent) (converted)): 63.1 µM
CN(C)CCC=C1c2ccccc2CCc2ccccc21 [Amitriptyline]	–	–	1.1	0.603	–	1.1	–	0.562	Selectivity ratio α1A vs α1B (human α1A-adrenoceptor): 93 fold; Selectivity ratio α1A vs α1D (human α1A-adrenoceptor): 87 fold; selectivities α1A vs α1B (human α1A-adrenoceptor): 93; selectivity α1A vs α1B (human α1A-adrenoceptor): 93; Kd (human α1A-adrenoceptor; [16]): 0.00646 µM
CC(C(O)c1ccc(O)cc1)N1CCC(Cc2ccccc2)CC1 (centres unmarked) [Ifenprodil]	15	0.0219	43	0.324	48.8 ± 4.5% site 1	43	2.9	–	Kd [1, 6]: 0.00759 µM; Log KD α1D site 2 [1, 7]: −6.05 ± 0.13; % site 1 α1D [1, 10]: -8.12 ± 0.18 -6.05 ± 0.13 48.8 ± 4.5% site 1
CN1CC[C@]2(CCN3CCc4c(oc5ccccc45)[C@@H]3C2)N(C)C1=O.Cl [MK-912]	–	–	69	–	–	–	–	–	Log KD α1A (human α1A-adrenoceptor; [17]): -6.76 ± 0.03; selectivity α1A vs 1D (human α1A-adrenoceptor; [3]): 3.5; selectivity α1A vs α1B (human α1A-adrenoceptor; [3]): 20; Log KD α1B (human α1B-adrenoceptor; [17]): -5.46 ± 0.05; Log KD α1D site 1 ([1]; two-component inhibition curve, first (high-affinity) component): -7.30 ± 0.16; % site 1 α1D [1, 10]: 61.2 ± 5.5%; Log KD α1D site 2 ([1]; two-component inhibition curve, second (low-affinity) component): -5.50 ± 0.25
CC(C)(Cc1c[nH]c2ccccc12)NCC(O)COc1ccccc1C#N (centres unmarked) [Bucindolol]	13	0.0269	1.0	0.347	–	1.0	13	0.355	selectivity α1A vs 1D (human α1A-adrenoceptor; [3]): 13.2; selectivity α1A vs α1B (human α1A-adrenoceptor; [3]): 13; selectivities α1A vs α1B (human α1A-adrenoceptor; [18]): 13; selectivities α1A vs α1D (human α1A-adrenoceptor; [18]): 13; α1A affinity, fold lower than that for the human β1 adrenoceptor (human α1A-adrenoceptor; β1 affinity from ref 53): 54 fold; α1A affinity, fold lower than that for the β2 adrenoceptor (human α1A-adrenoceptor; β2 affinity from refs 52, 53): 263 fold
Cc1nc2n(c(=O)c1CCN1CCC(c3noc4cc(F)ccc34)CC1)CCCC2O (centres unmarked) [Paliperidone]	–	0.00437	–	0.0437	57.6 ± 4.9% site 1	–	–	–	Selectivity ratio α1A vs α1B (human α1A-adrenoceptor): 10 fold; Selectivity ratio α1A vs α1D (human α1A-adrenoceptor): 7.8 fold; selectivity α1B vs α1D (human α1B-adrenoceptor): 1.3; Log KD α1D site 2 [1]: −5.57 ± 0.21; Selectivity ratio α1B vs α1D [1]: 1.3 fold; Kd [1, 6]: 0.0339 µM; % site 1 α1D [1, 10]: -7.47 ± 0.10 -5.57 ± 0.21 57.6 ± 4.9% site 1
CN(C)CCCN1c2ccccc2CCc2ccc(Cl)cc21 [Clomipramine]	–	–	–	0.457	–	–	–	0.708	Selectivity ratio α1A vs α1B (human α1A-adrenoceptor): 60 fold; Selectivity ratio α1A vs α1D (human α1A-adrenoceptor): 93 fold; Kd (human α1A-adrenoceptor; [16]): 0.00759 µM; Selectivity ratio α1B vs α1D (human α1B-adrenoceptor): 1.5 fold
O=C1Cc2cc(CCN3CCN(c4nsc5ccccc45)CC3)c(Cl)cc2N1 [Ziprasidone]	11	0.00186	–	0.02	–	–	34	0.0631	Selectivity ratio α1B vs α1D (human α1B-adrenoceptor; [14]): 3.2 fold
CC(C)(Cc1c[nH]c2ccc(Cl)cc12)NCCOc1ccccc1OCC1CC1.Cl [RS17053, N‐[2‐(2‐cyclopropylmethoxyphenoxy)ethyl]‐5‐chloro‐alpha, alpha‐dimethyl‐1H‐indole‐3‐ethanamine hydrochloride]	52	0.00468	1.7	0.245	–	1.7	31	–	Kd [1]: 0.145 µM
COc1ccccc1N1CCN(CCN2C(=O)c3ccccc3C(C)(C)C2=O)CC1 [ARC239]	–	–	–	–	60.5 ± 1.4% site 1	–	–	–	Log KD α1A (human α1A-adrenoceptor; [11]): −9.35 ± 0.08; Log KD α1B (human α1B-adrenoceptor; [11]): −8.15 ± 0.07
CN(C)CCCN1c2ccccc2CCc2ccccc21 [Imipramine]	–	0.0339	1.3	1.74	–	1.3	–	1.29	Selectivity ratio α1A vs α1B (human α1A-adrenoceptor): 51 fold; Selectivity ratio α1A vs α1D (human α1A-adrenoceptor): 38 fold
COc1cccc(OC)c1OCCNCC1CSc2ccccc2O1 (centres unmarked) [Benoxathian]	–	–	–	–	62.5 ± 3.4% Site 1	–	–	–	Log KD α1A (human α1A-adrenoceptor; [11]): −9.08 ± 0.05; Log KD α1B (human α1B-adrenoceptor; [11]): −7.32 ± 0.03; Log KD α1D site 1 [1, 12]: −7.91 ± 0.10; Log KD α1D site 2 [1, 7]: −5.62 ± 0.19; % site 1 α1D [1, 10]: -7.91 ± 0.10 -5.62 ± 0.19 62.5 ± 3.4% site 1
CC1c2ccccc2CN1CC1=NCCN1 (centres unmarked) [BRL44408]	17	–	2.4	–	–	2.4	7.2	–	Log KD α1A (human α1A-adrenoceptor; [11]): −5.92 ± 0.09; Log KD α1B (human α1B-adrenoceptor; [11]): −4.68 ± 0.07; Log KD α1D [1, 11]: −5.06 ± 0.05
CC(C)OC(=O)c1cc2c(OCC(O)CNC(C)(C)C)cccc2[nH]1 (centres unmarked) [SDZ 21009]	–	–	>12	–	–	–	–	–	Log KD α1A (human α1A-adrenoceptor; [17]): -5.24 ± 0.07; selectivity α1A vs 1D (human α1A-adrenoceptor; [3]): 1.4; selectivity α1A vs α1B (human α1A-adrenoceptor; [3]): >17; Log IC50 α1B (human α1B-adrenoceptor; log IC50 bound): Log IC50>-4; Log KD α1D [1, 17]: -5.09 ± 0.18
CC(C)OC(=O)c1cc2c(OCC(O)CNC(C)(C)C)cccc2[nH]1 (centres unmarked) [SDZ21009]	>17	–	–	–	–	>12	1.4	–	Log KD α1A (human α1A-adrenoceptor; [11]): −5.24 ± 0.07; selectivities α1B vs α1D (human α1B-adrenoceptor; [18]): >12; Log IC50 α1B (human α1B-adrenoceptor; top concentration inhibited some but 50% or less of specific binding, printed as log IC50): Log IC50 > −4; Log KD α1D [1, 11]: −5.09 ± 0.18
